Test results published in patent US11560417B2, “Isolated polypeptides of CD44 and uses thereof” (Yissum Research Development Company of the Hebrew …, priority 2014, dated 2023).
Ends that are not written are not given here. Peptide text beside a SMILES is read from it.

What was measured:
C57BL/6 mice = assay: Delayed type hypersensitivity (DTH) response to oxazolone; type: in vivo, mouse; conditions: oxazolone sensitization day 0, elicitation day 6, reading day 7; peptide 200 μg daily
Method: DTH model—C57BL/6 mice were painted at their abdomen with oxazolone solution (sensitization). On day 6, the right ear of each mouse was painted with the same hapten, oxazolone (elicitation), to generate delayed type hypersensitivity (DTH) response. The differences in thickness between the right and the left ears, indicating DTH development, were determined by microcaliper 24 hours later. DTH induction indicates a normal immune response. For additional details see Weiss et al., (2000) Proc. Natl. Acad. Sci. USA. 97, 285-290.
Treatment protocol—PBS and 5-mer peptide (SEQ ID NO: 1) at a dose of 200 μg was administered one day before the sensitization and then every day during the sensitization period (7 days).

[1] = test system: fibroblasts from the inflammatory joint of an RA patient; type: cell-based, human
Method: Cells—Fibroblasts from the inflammatory joint of an RA patient were cultured and maintained as shown in Bendersky et al, J Immunol.; 188:4349-59, 2012. A quantity of 20,000 cells was added to each one of the 96 well plates with the indicated concentrations of peptide, serum amyloid A or α-lactalbumin.
MTT assay—MTT assay was effected as shown in Madhyastha et al. (2015) J Clin Diagn Res.; 9 :ZCO5-8.
An in-vitro model was developed as a tool to evaluate the biological activity of the generated RA peptides. To this end, fibroblasts from the inflammatory joint of an RA patient were incubated in-vitro and the effect of the peptides on cell survival was evaluated by a MTT assay.

[2] = test system: CIA mice on C57BL/6 background; assay: ELISA for neutralizing anti-peptide antibodies in serum of treated CIA mice; type: in vivo, mouse; conditions: 70 μg per injection i.p., 10 consecutive days; ELISA plates coated with peptide
Method: (§1) Treatment protocol—PBS, or 5-mer RA peptide (SEQ ID NO: 1) at a dose of 70 μg per injection were administered i.p to CIA mice on C57BL/6 background for 10 consecutive days. In all groups first injection was given at the onset of disease as determined by paw swelling.
ELISA—96 wells ELISA plates were coated with 5-mer RA peptide (SEQ ID NO: 1), collagen or immunoglobulin (positive control). Serum from CIA mice treated with PBS or the 5-mer RA peptide was added to the coated plates and the presence of neutralizing antibodies against collagen or the RA peptide was detected with anti-immunoglobulin+detection system. The plate wells were coated with 1 mg/ml peptide or protein. Mouse serum was added to the plate wells for 15 hours in cold temperature. The detection system included HRP-anti-mouse IgG and TMB (Bako) substrate. Plates were analysed using an ELISA reader at a wave length of 450 nm.

[3] = test system: CIA mice on DBA/1 background; assay: Paw swelling in collagen-induced arthritis (CIA) mice on DBA/1 background; type: in vivo, mouse; conditions: for joint inflammation (paw swelling) vs PBS / hind paws that remained healthy (paw swelling less than 2 mm): 200 μg per injection i.p.; for joint inflammation (paw swelling) vs PBS: daily for 9-10 days from onset of disease; for hind paws that remained healthy (paw swelling less than 2 mm): daily for 9 days, CIA DBA/1 mice; for paw swelling response vs PBS: 4 times within 6 days from onset of disease
Method: (§2) Mice—Collagen-induced arthritis (CIA) was generated in DBA/1 or C57BL mice by injection of type II collagen as described in Nedvetzki et al., PNAS 101, 18081-18086, 2004.
as §1, with “protocol—PBS, or the 9-mer RA peptide (SEQ ID NO: 3) at a dose of 25 μg, 100 μg or 150 μg per injection was administered i.p to CIA mice for 4 times within 6 days (see Table 3 below). PBS (n=7),” for “protocol—PBS,”, “1, n=7)” for “1)”
(§3) Evaluation of joint inflammation—Inflammation was evaluated by the paw swelling response. Paw swelling was measured by micro caliber. Paw swelling at range of 2.1-2.3 mm was considered “onset of disease” and the starting point for injection of the peptides. […] All measurements were performed under blind manner (For additional details see Nedvetzki, et al., (2004) PNAS 101, 18081-18086).
(§4) Treatment protocol—PBS, or the tested peptides [Ac-TRMTADVDR-NH2 (SEQ ID NO: 6), Ac-MTADVDR-NH2 (SEQ ID NO: 5), Ac-MTADV-NH2 (SEQ ID NO: 4) and scrambled Ac-TMDVADR-NH2 (SEQ ID NO: 7)] at doses of 70 or 200 μg per injection were administered i.p to […] for 9-10 consecutive days (see Tables 4-7 below). As a non-specific control, several mice were administered I.P. with Dexamethsone (Dex) at a dose of 50 μg, following the same protocol. In all groups first injection was given at the onset of disease as determined by paw swelling.
Evaluation of joint inflammation—As described in Example 2 above. Paw swelling of less than 2 mm was considered healthy.

[4] = test system: CIA mice on C57BL/6 background; assay: Paw/footpad swelling in CIA mice on C57BL/6 background; type: in vivo, mouse; conditions: 10 consecutive days; for joint inflammation (paw swelling) vs PBS: 70 μg per injection i.p.
Method: as §2, §3, §4
Treatment protocol—PBS, or the tested peptide [Ac-MTADV-NH2 (SEQ ID NO: 4)] at doses of 10, 25, 70, 200 or 600 μg per injection were administered i.p to CIA mice for 10 consecutive days (see Tables 8-9 below). In all groups first injection was given at the onset of disease as determined by paw swelling.
To evaluate the optimal anti-inflammatory therapeutic dose of the 5-mer RA peptide, several different doses of the protected peptide (SEQ ID NO: 4) were administered to CIA mice on C57BL/6 background and joint inflammation was determined by footpad swelling measurements (electronic automatic measurements of the volume of the footpad, based on Archimedes observation).

## CSCC[C@H](N)C(=O)N[C@H](C(=O)N[C@@H](C)C(=O)N[C@@H](CC(=O)O)C(=O)N[C@H](C(=O)O)C(C)C)[C@@H](C)O [5-mer RA peptide, MTADV] (H-MTADV-OH)
C57BL/6 mice
  DTH response (difference in thickness between right and left ears) vs PBS: did not affect the DTH response
[1]
  in-vitro maximal suppressive effect on cell survival: 60%
[2]
  neutralizing antibodies to the peptide in serum: no neutralizing antibodies

## Ac-MTADV-NH2 [5-mer protected RA peptide]
[3]
  joint inflammation (paw swelling) vs PBS: reduces joint inflammation
[1]; MTT assay
  suppressive effect on cell survival compared to the 5-mer RA peptide (SEQ ID NO: 1): improved the suppressive effect
[4]; 10 μg per injection i.p.
  joint inflammation (footpad swelling) vs PBS: did not induce a significant anti-inflammatory effect
[4]; 25 μg per injection i.p.
  joint inflammation (footpad swelling) vs PBS: did not induce a significant anti-inflammatory effect
[4]
  joint inflammation (paw swelling) vs PBS: reduced the joint inflammation
[4]; listed as 5-mer protected peptide
  joint inflammation (paw swelling) vs PBS: significantly inhibit joint inflammation
[4]; 200 μg per injection i.p.
  joint inflammation (footpad swelling) vs PBS: reduced the joint inflammation
[4]; 600 μg per injection i.p.
  joint inflammation (footpad swelling) vs PBS: reduced the joint inflammation
[4]; doses 10-600 μg i.p.
  optimal and lowest dose for CIA inhibition: 70 μg per injection

## Ac-MTADVDR-NH2 [7-mer protected RA peptide]
[3]
  joint inflammation (paw swelling) vs PBS: reduces joint inflammation
  hind paws that remained healthy (paw swelling less than 2 mm): more than 60%

## Ac-TMDVADR-NH2 [reference compound]
[3]
  joint inflammation (paw swelling) vs PBS: no effect on footpad swelling
  hind paws that remained healthy (paw swelling less than 2 mm): 33%

## Ac-TRMTADVDR-NH2 [9-mer protected RA peptide]
[3]
  joint inflammation (paw swelling) vs PBS: reduce joint inflammation

## TRMTADVDR (not fully specified (C-terminus)) [9-mer RA peptide]
[3]; 25 μg per injection i.p.
  paw swelling response vs PBS: did not show significant difference in paw swelling response
[3]; 100 μg per injection i.p.
  paw swelling response vs PBS: did not show significant difference in paw swelling response
[3]; 150 μg per injection i.p.
  paw swelling response vs PBS: significant reduction in paw swelling

B1: Serum Amyloid A (SAA): Serum Amyloid A protein added to the fibroblast culture in combination with the 5-mer peptide (protein)
chain: RSFFSFLGEAFDGARDMWRAYSDMREANYIGSDKYFHARGNYDAAKRGPGGAWAAEVITDARENIQRFFGHGAEDSLADQAANEWGRSGKDPNHFRPAGLPEKY
[1]; 50 μg/ml added in combination with the 5-mer peptide
  effect on the 5-mer peptide's inhibition of cell survival: prevents this inhibition
[1]; escalating concentrations, 5-mer peptide constant at 25 μg/ml
  effect on the 5-mer peptide's reduction of fibroblast survival: gradually prevented this reduction
